Assay [1] concerns Bacillus subtilis IFO 3134. Description: Antibacterial activity (MIC) against Bacillus subtilis IFO 3134. Format: cell-based. The conditions noted are these: IFO3134, 37° C., 18 to 20 hours. As for the experimental part: The antibacterial activity against Gram-positive bacteria of the compound of the present invention was measured according to a standard method of Nippon Kagaku Ryoho Gakkai [Nippon Kagaku Ryoho Gakkaishi (Journal of the Chemical therapy of Japan), 29, 76(1981)].
As for gram-positive bacteria, after cultivation in Meuller Hinton broth medium (made by Difco Co., Ltd.), there was prepared a bacterial suspension for inoculation containing about 10^6 of the bacteria per 1 ml of the Meuller Hinton broth medium. On the other hand, the test compound was added to Mueller Hinton agar medium (made by Difco Co., Ltd.) so as to give agar plate medium containing test samples which are twofold serial diluted. Then, the above-mentioned bacterial suspension for inoculation was streaked to each agar medium for about 2 cm with a looped nichrome wire (inner diameter: about 1 mm).
After that the each agar plate medium was cultured at 37° C. for 18 to 20 hours, the growth of the test bacteria was determined.

Assay [2] concerns antigen-induced anaphylactic shock death. Put plainly: Protecting effect against antigen-induced anaphylactic shock death in actively sensitized guinea pigs. Format: in vivo, male guinea pigs. To be noted: Cavia porcellus, 1.5 h, oral, 30 minutes before antigen inhalation. As for the experimental part: (2) Protecting effect against antigen-induced anaphylactic shock death in actively sensitized guinea pigs
Anaphylactic shock death caused by inhalation of antigen was observed according to John P. Devlin Pulmonary and Antiallergic Drugs, John Wiley & Sons, (1985)] employing actively sensitized guinea pigs.
Each 100 mg/kg of body weight ovalbumin dissolved in physiological saline was injected into gluteus and into peritoneal cavity of male guinea pigs weighing 250 to 350 g. Three days later, the animals were further injected intraperitoneally with ovalbumin (100 mg/kg body weight) to conduct booster. Those animals were employed for testing 3 to 4 weeks after the sensitization.
In each group, 4 or more actively sensitized guinea pigs were pretreated by subcutaneously injecting pyrilamine (1 mg/kg body weight) 30 minutes before antigen inhalation to suppress histamine-dependent response and propranolol (1 mg/kg body weight) to enhance the response induced by other than histamine 10 minutes before the antigen inhalation.
The animal was placed in a desiccator with a capacity of about […] and 0.5% aqueous solution of ovalbumin in the state of aerosol was inhaled with ultrasonic type nebulizer for five minutes. Anaphylactic shock death was observed and the animals survived for 90 minutes or more after antigen inhalation were estimated to be protected. All the animals of the control group died due to anaphylactic shock. The compounds of the present invention and therapeutic antiasthmatic agent (tranilast, theophylline) were administered orally 30 minutes before the antigen inhalation.

≈ marks a conversion by molar mass, not a printed value.

Broadly, the MIC is the lowest concentration that inhibits growth of the organism. In assay [1], `O=C1Nc2ccccc2C1=Cc1cc(O)c(O)c(CSc2ccccc2)c1` [Compound 11] showed an MIC of no more than 6 µg/mL.

As to `O=C1NN(c2ccccc2)C(=O)C1=Cc1cc(Cc2ccccc2)c(O)c(Cc2ccccc2)c1` [Compound 20], the MIC in assay [1] worked out at 50 µg/mL (≈ 109 µM).

With `CC(C)c1cc(C=C2SC(NCc3ccc(S(N)(=O)=O)cc3)=NC2=O)cc(C(C)C)c1O` [Compound 41], in assay [1], it took 25 µg/mL (≈ 52.8 µM) to inhibit growth (MIC). Moreover, the responders at 10 mg/kg in assay [2] is 25%.

On to `Cc1ccc(CNC2=NC(=O)C(=Cc3cc(C(C)C)c(O)c(C(C)C)c3)S2)cc1` [Compound 39], for which, in assay [2], the responders at 100 mg/kg is 25%.

For the compound `CC(C)c1cc(C=C2SC(NCc3ccc(Cl)c(Cl)c3)=NC2=O)cc(C(C)C)c1O` [Compound 37], the responders at 100 mg/kg in assay [2] was 25%.

In turn, `O=C1NC(=S)SC1=Cc1cc(Cc2ccccc2)c(O)c(Cc2ccccc2)c1` [Compound 2] showed an MIC in assay [1] of no more than 6 µg/mL.

`CC(C)c1cc(C=C2SC(NCc3ccc(F)cc3)=NC2=O)cc(C(C)C)c1O` [Compound 35]: in assay [2], the responders at 10 mg/kg is 50%.

For the origin of these results see patent publication US5089516A, “1-phenyl-3,5-pyrazolidinedione hydroxystyrene compounds which have tyrosine kinase inhibiting activity” (Kanegafuchi Kagaku Kogyo Kabushiki Kaisha, priority 1987, dated 1992).
